Test results published in US10292980B2, “GAPDH cascade inhibitor compounds and methods of use and treatment of stress induced disorders including mental illness” (THE JOHNS HOPKINS UNIVERSITY, priority 2012, dated 2019).

What was measured:
TAC hearts [1] = assay: TAC chronic pressure-overload cardiac hypertrophy model, treatment from time of constriction; assay type: in vivo, mouse
Protocol: Cardiac animal models: All protocols were approved by Animal Care and Use Committee of the Johns Hopkins University. TAC was performed in C57/BL6 mice (Jackson Laboratory) as previously described in (Nat. Med., 11, 214-222 (2005), J. Clin. Invest., 119, 408-420 (2009), J. Am. Coll. Cardiol., 56, 2021-2030 (2010)). Physiological analysis, histological analysis: Echocardiography and pressure-volume loop studies were performed as described previously (Takimoto et al., Nat. Med., 11, 214-222 (2005)). 10% formalin fixed heart samples were embedded in paraffin, sectioned and stained for myocyte size (WGA staining) and fibrosis (Masson Trichrome staining) as described previously (Zhang et al., J. Am. Coll. Cardiol., 56, 2021-2030 (2010)). Isolated adult cardiac myocyte or rat neonatal cardiac myocyte was fixed with 50% methanol/50% acetone and stained with antibodies against GAPDH (Millipore), sulphonated GAPDH or HA as previously described. HAT activity assay, MEF2 activity assay, MAO activity assay, GAPDH assay: p300 HAT activity was measured using commercially available kit (Biovision), using immunoprecipitation with p300 antibody (Circulation 118, 934-946 (2008)). MEF2 activity was measured using luciferase reporter assay (Panomics). MAO activity assay was measured using commercially available kit (Peninsula Laboratory). GAPDH activity was measured as previously described in (Nat. Cell Biol., 7, 665-674 (2005)). PUMA mRNA expression was determined by real time RT-PCR using SYBR Green fluorescence on a LightCycler instrument (Roche Applied Science). Expression of the gene of interest was divided by the housekeeping gene glyceraldehyde-3-phosphate dehydrogenase (GAPDH) and presented as fold induction of control. Protein and RNA analysis: Total RNA was isolated from cells or left ventricular myocardium with Trizol (Molecular Research Center, Inc, Cincinnati, Ohio) and analyzed by real-time polymerase chain reaction (PCR) with TaqMan probes (Applied Biosystems, Foster City, Calif.). Results were normalized to GAPDH or 18S RNA. Cell lysates or nuclear extracts were obtained from cultured myocytes or ventricular tissue, resolved by SDS-polyacrylamide gel electrophoresis, subjected to immunoblotting and imaged by chemiluminescence as previously described. To understand the pathology underlying heart hypertrophy, chronic pressure overload induced by transverse aorta constriction (TAC) is used as an established experimental animal model. Heart hypertrophy is evident at 7 to 10 days after the constriction, which leads to irreversible functional defects in 9 weeks. In the present study, the TAC model was employed and identified GAPDH as a key conveyer of the pathological stress signal to nuclear p300, resulting in disruption of critical homeostasis in vivo. In the present invention, the significance of the nuclear GAPDH cascade in vivo has been shown. With this understanding there is also provided novel therapeutic methods of treatment of stress induced disorders, including, for example, cardiac hypertrophy, which are urgent and very important medical needs.

TAC hearts [2] = assay: TAC model, delayed RR treatment of pre-existing cardiac hypertrophy; assay type: in vivo, mouse
Protocol: Cardiac animal models: All protocols were approved by Animal Care and Use Committee of the Johns Hopkins University. TAC was performed in C57/BL6 mice (Jackson Laboratory) as previously described in (Nat. Med., 11, 214-222 (2005), J. Clin. Invest., 119, 408-420 (2009), J. Am. Coll. Cardiol., 56, 2021-2030 (2010)). Physiological analysis, histological analysis: Echocardiography and pressure-volume loop studies were performed as described previously (Takimoto et al., Nat. Med., 11, 214-222 (2005)). 10% formalin fixed heart samples were embedded in paraffin, sectioned and stained for myocyte size (WGA staining) and fibrosis (Masson Trichrome staining) as described previously (Zhang et al., J. Am. Coll. Cardiol., 56, 2021-2030 (2010)). Isolated adult cardiac myocyte or rat neonatal cardiac myocyte was fixed with 50% methanol/50% acetone and stained with antibodies against GAPDH (Millipore), sulphonated GAPDH or HA as previously described. Protein and RNA analysis: Total RNA was isolated from cells or left ventricular myocardium with Trizol (Molecular Research Center, Inc, Cincinnati, Ohio) and analyzed by real-time polymerase chain reaction (PCR) with TaqMan probes (Applied Biosystems, Foster City, Calif.). Results were normalized to GAPDH or 18S RNA. Cell lysates or nuclear extracts were obtained from cultured myocytes or ventricular tissue, resolved by SDS-polyacrylamide gel electrophoresis, subjected to immunoblotting and imaged by chemiluminescence as previously described. In most clinical settings, medication and treatment starts only after pathological changes occur at least to some extent.

[3] = 0.25 mg/kg/day i.p. from constriction, measured after 10th day (TAC10)
[4] = pressure volume loop analysis, RR versus vehicle treatment

SMILES: C#CCN1[C@H](C)Cc2ccccc2[C@H]1C [RR, (1R,3R)-1,3-dimethyl-2-propargyl-1,2,3,4-tetrahydroisoquinoline]
- levels of nuclear GAPDH in TAC hearts (TAC hearts [1]; [3]): dramatically reduced
- levels of p300 HAT activity in TAC hearts (TAC hearts [1]; [3]): dramatically reduced
- cardiac hypertrophy remodeling assessed by cardiac myocyte cell size (TAC hearts [1]; 0.25 mg/kg/day i.p., TAC): ameliorated
- cardiac hypertrophy remodeling assessed by fibrosis (TAC hearts [1]; 0.25 mg/kg/day i.p., TAC): ameliorated
- cardiac hypertrophy remodeling assessed by heart weight (TAC hearts [1]; 0.25 mg/kg/day i.p., TAC): ameliorated
- TAC-induced left ventricular dilatation (LV-EDD) (TAC hearts [1]; echocardiogram): significantly inhibited
- TAC-induced reduction in Fractional Shortening (% FS) (TAC hearts [1]; echocardiogram): significantly inhibited
- cardiac performance despite sustained pressure-overload stress (TAC hearts [1]; invasive hemodynamic study, pressure volume loop analysis): improvement of cardiac performance
- pathological gene expression profile: down-regulation of calcium handling proteins (TAC hearts [1]; myocardial mRNA, TAC): significantly improved or normalized
- pathological gene expression profile: fetal gene re-expression (BNP, β-MHC) (TAC hearts [1]; myocardial mRNA, TAC): significantly improved or normalized
- diastolic relaxation properties (Tau) (TAC hearts [1]; [4]): significantly better
- systolic function (dPdtmx) (TAC hearts [1]; [4]): significantly better
- expression profile of cardiac fetal gene (BNP) (TAC hearts [2]; delayed treatment, RR-treated versus vehicle group): significant improvement
- cardiac myocyte size (terminal postmortem assessment) (TAC hearts [2]; treatment initiated 1 week after TAC, about two weeks): smaller
- further LV mass increase from sustained pressure overload (TAC hearts [2]; treatment initiated 1 week after TAC, about two weeks of treatment, echocardiogram): significantly blocked
